Experimental data as given in patent publication US8168430B2, “Method for preparation of hepatocyte using ES cell” (Nihon University, priority 2006, dated 2012).

Tests used:
TT2 ES cells [1] = test: Expression of differentiation markers (RT-PCR, western blot) in ES cells induced to differentiate from embryoid bodies; details: for expression of the differentiation markers for hepatocyte (albumin, Cyp7a1 etc.): cultured 18 days in supplemented differentiation-inducing medium, RT-PCR and western blot
TT2 ES cells [2] = test: FACS analysis of albumin producing cells; assay type: cell-based, mouse; details: cultured 9 days; FACS with anti-albumin antibodies; control 22%
Procedure: The medium of the cultured cells was removed and washing was performed using PBS (−). After the cells were detached from the surface of the dish using 0.25% trypsin solution, 5 mL of a collagenase solution as described below was added to the cells and the cells were incubated at 37° C. for 30 minutes in order to digest the intercellular adhesion.
After digestion, cells were collected by centrifugation (1000 rpm, 4° C., 5 minutes) and fixed using 1 mL of ice-chilled 100% methanol. After fixing the cells, centrifugation (1500 rpm, 4° C., 5 minutes) was performed in order to remove the methanol. […] Then FITC-bonded sheep anti-rabbit IgG (MP Biomedicals Inc., Catalog# 55647, Lot# 02756) was added to the cells and the cells were allowed to stand for one hour while shielding against light. After standing for one hour, the cells were loaded by a FACS Canto™ (Becton Dickinson, Franklin Lakes, N.J.) wherein a FSC voltage was set to 80, a FITC voltage was set to 300 and a threshold was set to 1000. Thereafter BD DiVa Software was used for analysis. In FIGS. 12 and 13, the intensity of FITC is shown on the horizontal axis and FSC is shown on the vertical axis.
Then uPA, DFP-treated uPA or tPA was added to differentiation-inducing medium and cultured for 9 days. Cells were isolated using trypsin treatment and collagenase treatment, and FACS analysis was performed using anti-albumin antibodies.

| Compound | expression of the differentiation markers for hepatocyte (albumin, Cyp7a1 etc.) (TT2 ES cells [1]) | albumin producing cells, share of the total number of cells (TT2 ES cells [2]) [%] | induction of differentiation into hepatocytes (TT2 ES cells [1]; differentiation-inducing medium supplemented with the factor) |
| --- | --- | --- | --- |
| N=C(N)c1ccc(N)cc1 [p-aminobenzamidine, reference compound] | suppressed |  |  |
| tPA: tissue-type PA which has the same substrate specificity as uPA | almost no change | 27.2 | did not induce differentiation into hepatocytes |
